Experimental data published in PMC8704891, “Natural Benzo/Acetophenones as Leads for New Synthetic Acetophenone Hybrids Containing a 1,2,3-Triazole Ring as Potential Antifouling Agents” (Marine Drugs, 2021).
Entries after “also recorded” stand apart in the source; their conditions may differ. Like-named read-outs stand apart in the source and are kept apart here. Values belong to the compound of their own block, whether it stands above or below them.

Experiments:
Ulva pertusa = system: Ulva pertusa; design: method as in doi:10.3989/scimar.04638.13A; settings: cited from earlier work
[1] = system: Roseobacter litoralis CECT 5395; test: Biofilm-forming marine bacteria growth inhibition; type: cell-based; settings: for EC50: Roseobacter litoralis, CECT5395; for R. litoralis biofilm growth inhibition: screening at 15 μM, 24 h, vs negative control (Dunnett, p < 0.01)
Experimental: Five strains of marine biofilm-forming bacteria from the Spanish Type Culture Collection (CECT): Cobetia marina CECT 4278, Vibrio harveyi CECT 525, Halomonas aquamarina CECT 5000, Pseudoalteromonas atlantica CECT 570, and Roseobacter litoralis CECT 5395 were selected for antibacterial screening. The experimental procedure was performed according to the previously reported. Briefly, bacteria were inoculated and incubated for 24 h at 26 °C in marine broth (Difco) at an initial density of 0.1 (OD600) in 96-well flat-bottom microtiter plates and exposed to the test compounds at 15 μM. Bacterial growth inhibition in the presence of the compounds was determined in quadruplicate at 600 nm using a microplate reader (BioTek Synergy HT, Winooski, VT, USA). Negative and positive controls used were a solution of marine broth with 0.1% DMSO, and a solution of marine broth with penicillin–streptomycin–neomycin, respectively. Bacterial growth inhibition calculations were made based in the formula ((Mc–Mt)/Mc) × 100, where Mc is the mean of the four replicates from negative control, and Mt is the mean of four replicates from each of the tested compounds.
(§1) Data from anti-settlement, antibacterial, and anti-microalgal bioassay were analyzed by one-way analysis of variance (ANOVA), followed by a multi-comparisons Dunnett’s test against negative control. For all of the bioassays, the half-maximum response concentration (EC50) values for each compound, when applicable, were calculated using probit regression analysis. Significance was considered at p < 0.01, and 95% lower and upper confidence limits (95% LCL; UCL). The software IBM SPSS Statistics 26 (Armonk, New York, NY, USA) was used for statistical analysis.

[2] = Mussel larvae anti-settlement bioassay; type: in vivo; settings: Mytilus galloprovincialis (mussel) plantigrade larvae, in vivo; mussel plantigrade larvae; highest concentration tested 200 μM; read-out: LC50 (µM), median lethal dose
Experimental: (§2) Mussel (Mytilus galloprovincialis) plantigrades were collected in juvenile aggregates during low neap tides at Memória beach, Matosinhos, Portugal (41°13′59″ N; 8°43′28″ W). In the laboratory, mussel plantigrade larvae (0.5–2 mm) were isolated in a binocular magnifier (Olympus SZX2-ILLT, Tokyo, Japan) to a petri dish with filtered seawater, and those with functional foot and competent exploring behavior were selected to the bioassays. Compounds were screened at 50 µM in 24-well microplates with 4-well replicates per condition and 5 larvae per well, for 15 h, in the darkness at 18 ± 1 °C, according to the previously reported. All compounds that caused more than 60% of settlement inhibition (≤40% of settlement) in the screening bioassay were considered active and selected for the determination of the semi-maximum response concentration that inhibited 50% of the larval settlement (EC50), at compounds concentrations of 3.125, 6.25, 12.5, 25, 50, 100, and 200 μM.
as §1

[3] = system: Mytilus galloprovincialis plantigrade larvae; test: Mussel larvae anti-settlement bioassay; type: in vivo; settings: for EC50: Mytilus galloprovincialis, dose-response 3.125-200 μM; for percentage of settlement: screening at 50 μM, 15 h
Experimental: as §2, §1

Artemia salina nauplii [4] = test: Artemia salina nauplii lethality ecotoxicity bioassay; type: in vivo; settings: 25 and 50 μM, 48 h exposure
Experimental: The brine shrimp (Artemia salina) nauplii lethality test was used to determine the ecotoxicity of 6a, 7a, and 9a to non-target organisms. Briefly, Artemia salina eggs were allowed to hatch in seawater for 48 h at 25 °C. Bioassays were performed in 96-well microplates with 15–20 nauplii per well and 200 μL of the compounds test solution. Test solutions were prepared in filtered seawater at concentrations of 25 and 50 μM. All tests included K2Cr2O7 as positive control and DMSO as a negative control. Bioassays run in the dark at 25 °C, and the percentage of mortality was determined after 48 h of exposure.

Navicula sp. = test: Biofilm-forming marine diatom growth inhibition; type: cell-based; settings: for EC50: dose-response
Experimental: The anti-microalgal activity of the most promising compounds was also evaluated against a benthic marine diatom, Navicula sp., purchased from the Spanish Collection of Algae (BEA), according to the previously reported. Briefly, diatom cells were inoculated in f/2 medium (Sigma) at an initial concentration of 2–4 × 10^6 cells·mL^−1 and grown in 96-well flat-bottom microtiter plates for 14 days in continuous light at 20 °C. […] Growth inhibition was calculated based in the formula ((Mc–Mt)/Mc) × 100, where Mc is the mean of the cell counts of the four replicates from negative control, and Mt is the mean of the cell counts of the four replicates from each of the tested compounds. Positive control with cycloheximide (3.55 μM) and negative control with f/2 medium 0.1% DMSO were included.
as §1

Artemia salina nauplii [5] = system: Artemia salina nauplii; design: method as in PMID 31669574; settings: 25 and 50 μM; cited from earlier work
[6] = dose-response, read-out: EC50 (µM), R. litoralis growth
[7] = dose-response, read-out: EC50 (µg·mL^−1), R. litoralis growth
[8] = 95% CI in brackets, read-out: EC50 (µM), concentration that inhibited 50% of larval settlement

SMILES: CC(=O)c1ccc(O)cc1O [2,4-dihydroxyacetophenone]
inhibition of spore attachment (Ulva pertusa): significantly inhibit

SMILES: COc1cc(C(C)=O)cc(OC)c1OCc1cn(-c2ccc(F)cc2)nn1 [Compound 4a, 1-(4-((1-(4-Fluorophenyl)-1H-1,2,3-triazol-4-yl)methoxy)-3,5-dimethoxyphenyl)ethan-1-one]
melting point: 160 to 160.5 °C

SMILES: CC(=O)c1ccc(OCc2cn(-c3ccc(F)cc3)nn2)cc1O [Compound 4b, 1-(4-((1-(4-Fluorophenyl)-1H-1,2,3-triazol-4-yl)methoxy)-2-hydroxyphenyl)ethan-1-one]
EC50 [1, 6]: 105 µM
EC50 [1, 7]: 34.4 µg/mL
R. litoralis biofilm growth inhibition [1]: significantly inhibit
melting point: 145.9 to 148 °C

SMILES: COc1cc(C(C)=O)cc(OC)c1OCc1cn(-c2ccc(Cl)cc2)nn1 [Compound 6a, 1-(4-((1-(4-Chlorophenyl)-1H-1,2,3-triazol-4-yl)methoxy)-3,5-dimethoxyphenyl)ethan-1-one]
LC50 at 15 h [2]: > 200 µM
EC50 [3, 8]: 28.9 µM
percentage of settlement [3]: ≤ 40%

SMILES: COc1cc(C(C)=O)cc(OC)c1OCc1cn(CCCO)nn1 [Compound 7a, 1-(4-((1-(3-Hydroxypropyl)-1H-1,2,3-triazol-4-yl)methoxy)-3,5-dimethoxyphenyl)ethan-1-one]
mortality rate of Artemia salina nauplii (Artemia salina nauplii [4]): not significantly different from negative control; also recorded: non-toxic
LC50 at 15 h [2]: > 200 µM
EC50 [3, 8]: 40.1 µM
EC50 ([3]; read-out: EC50 (µg·mL^−1), larval settlement): < 25 µg/mL
percentage of settlement [3]: ≤ 40%
Navicula sp. growth inhibition screening (Navicula sp.; 15 µM (Figure 5 legend), 14 days): showed inhibitory activity
EC50 (Navicula sp.; read-out: EC50 (µM), Navicula sp. growth): 26.7 µM
EC50 (Navicula sp.; read-out: EC50 (µg·mL^−1), Navicula sp. growth): 8.96 µg/mL

SMILES: COc1cc(C(C)=O)cc(OC)c1OCc1cn([C@H]2O[C@@H](CO)[C@H](O)[C@@H](O)[C@@H]2NC(C)=O)nn1 [Compound 9a, N-((2S,3S,4S,5R,6S)-2-(4-((4-Acetyl-2,6-dimethoxyphenoxy)methyl)-1H-1,2,3-triazol-1-yl)-4,5-dihydroxy-6-(hydroxymethyl)tetrahydro-2H-pyran-3-yl)acetamide]
mortality rate of Artemia salina nauplii (Artemia salina nauplii [4]): not significantly different from negative control; also recorded: non-toxic
LC50 at 15 h [2]: > 200 µM
EC50 [3, 8]: 20.7 µM
percentage of settlement [3]: ≤ 40%

SMILES: N#Cc1c(-c2ccc(Cl)cc2)[nH]c(C(F)(F)F)c1Br [ECONEA®]
lethality to Artemia salina (Artemia salina nauplii [5]): 100%

Second part, led by results:

melting point: 149.5 to 149.8 °C
SMILES: COc1cc(C(C)=O)cc(OC)c1OCc1cn(Cc2ccc(C#N)cc2)nn1 [Compound 3a, 4-((4-((4-Acetyl-2,6-dimethoxyphenoxy)methyl)-1H-1,2,3-triazol-1-yl)methyl)benzonitrile]

EC50 [1, 6]: 49.8 µM
EC50 [1, 7]: 17.4 µg/mL
melting point: 153.8 to 155.6 °C
SMILES: CC(=O)c1ccc(OCc2cn(Cc3ccc(C#N)cc3)nn2)cc1O [Compound 3b, 4-((4-((4-Acetyl-3-hydroxyphenoxy)methyl)-1H-1,2,3-triazol-1-yl)methyl)benzonitrile]
R. litoralis biofilm growth inhibition [1]: significantly inhibit

melting point: 159.1 to 160.4 °C
SMILES: COc1cc(C(C)=O)cc(OC)c1OCc1cn(-c2ccc(Br)cc2)nn1 [Compound 5a, 1-(4-((1-(4-Bromophenyl)-1H-1,2,3-triazol-4-yl)methoxy)-3,5-dimethoxyphenyl)ethan-1-one]

melting point: 183.3 to 184.8 °C
SMILES: CC(=O)c1ccc(OCc2cn(-c3ccc(Br)cc3)nn2)cc1O [Compound 5b, 1-(4-((1-(4-Bromophenyl)-1H-1,2,3-triazol-4-yl)methoxy)-2-hydroxyphenyl)ethan-1-one]

melting point: 157 to 159.1 °C
SMILES: CC(=O)c1ccc(OCc2cn(-c3ccc(Cl)cc3)nn2)cc1O [Compound 6b, 1-(4-((1-(4-Chlorophenyl)-1H-1,2,3-triazol-4-yl)methoxy)-2-hydroxyphenyl)ethan-1-one]

EC50 (µM), R. litoralis growth ([1]; dose-response): not possible to estimate
melting point: 69.2 to 70.5 °C
SMILES: CC(=O)c1ccc(OCc2cn(CCCO)nn2)cc1O [Compound 7b, 1-(2-Hydroxy-4-((1-(3-hydroxypropyl)-1H-1,2,3-triazol-4-yl)methoxy)phenyl)ethan-1-one]
R. litoralis biofilm growth inhibition [1]: significantly inhibit

melting point: 99.5 to 102.3 °C
SMILES: COc1ccc(-n2cc(COc3c(OC)cc(C(C)=O)cc3OC)nn2)cc1 [Compound 8a, 1-(3,5-Dimethoxy-4-((1-(4-methoxyphenyl)-1H-1,2,3-triazol-4-yl)methoxy)phenyl)ethan-1-one]

melting point: 115.1 to 117.5 °C
SMILES: COc1ccc(-n2cc(COc3ccc(C(C)=O)c(O)c3)nn2)cc1 [Compound 8b, 1-(2-Hydroxy-4-((1-(4-methoxyphenyl)-1H-1,2,3-triazol-4-yl)methoxy)phenyl)ethan-1-one]
